The values that follow are results of earlier work, collected in US20230310447A1, “METHODS OF TREATING AGE-RELATED COGNITIVE DECLINE” (Woolsey Pharmaceuticals, Inc., priority 2020, published 2023).

The test system of one data set is memory in aging rats. As to conditions: eighteen-month old rats; 0.1875 or 0.3750 mg per day, single daily injection; radial maze.
The conditions of data set [1]: 1-hydroxy (M3) metabolite, in vivo; Shibuya 2001.

As to hydroxyfasudil, the working memory entry in the data set with memory in aging rats is listed as “improvements in working memory”.
For `O=S(=O)(c1cccc2c(O)nccc12)N1CCCNCC1` [hydroxyfasudil], in data set [1], the half-life result was “about 8 hours”.
